Data published in patent US10501473B2, “Fused heterocyclic ring compounds and method of treating retinal disease using same” (THE INDUSTRY & ACADEMIC COOPERATION IN CHUNGNAM NATIONAL …, priority 2014, dated 2019).

Key:
[1] = biological target: RIPK1 (receptor-interacting serine/threonine-protein kinase 1) (Homo sapiens (Human), UniProt Q13546); assay: RIPK1 inhibitory activity, autophosphorylation of immuno-precipitated RIPK1 with [32P]γ-ATP; format: biochemical; conditions: for inhibition at 100 µM: Table 2, 100 μM; for activity at 100 µM: compound 100 μM, remaining RIPK1 phosphorylation
Sequence of RIPK1 (receptor-interacting serine/threonine-protein kinase 1) (Q13546 whole entry, species assumed): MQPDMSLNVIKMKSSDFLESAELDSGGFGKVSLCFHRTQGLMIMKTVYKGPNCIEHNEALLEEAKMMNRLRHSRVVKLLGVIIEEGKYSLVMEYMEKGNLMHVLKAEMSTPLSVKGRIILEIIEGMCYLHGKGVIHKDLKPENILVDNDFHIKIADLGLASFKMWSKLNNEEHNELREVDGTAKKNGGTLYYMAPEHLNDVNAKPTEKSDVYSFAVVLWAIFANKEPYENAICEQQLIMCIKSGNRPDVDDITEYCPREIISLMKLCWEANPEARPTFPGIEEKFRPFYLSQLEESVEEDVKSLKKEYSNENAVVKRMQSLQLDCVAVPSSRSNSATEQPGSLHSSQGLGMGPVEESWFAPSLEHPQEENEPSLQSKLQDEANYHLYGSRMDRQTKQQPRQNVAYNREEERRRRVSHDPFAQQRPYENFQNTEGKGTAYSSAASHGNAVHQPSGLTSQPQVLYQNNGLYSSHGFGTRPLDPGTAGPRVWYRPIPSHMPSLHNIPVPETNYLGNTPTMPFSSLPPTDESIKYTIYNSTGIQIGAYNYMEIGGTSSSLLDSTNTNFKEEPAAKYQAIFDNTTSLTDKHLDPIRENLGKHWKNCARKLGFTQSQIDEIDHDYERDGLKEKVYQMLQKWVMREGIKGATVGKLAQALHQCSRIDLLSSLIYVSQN
Description: The following experiment was performed to evaluate RIPK1 (receptor-interacting serine/threonine-protein kinase 1) inhibitory activity of the compounds of examples of the invention.
RIPK1 enzyme immuno-precipitated in HEK293 (Human Embryonic Kidney 293) cell lysate was used as kinase. The experiment was performed according to the method described in Cell. 12; 137(6):1112-23(2009). RIPK1 protein was over-expressed in HEK293 cell line, to which lysis buffer (50 mM Tris-Cl [pH 8.0], 150 mM NaCl, 1 mM EDTA, 1% NP-40, 0.4 mM phenylmethylsulfonyl fluoride (PMSF)) was added for cell lysis. Centrifugation was performed at 13,000 rpm for 10 minutes to separate the supernatant. RIPK1 monoclonal antibody (610459, BD Bioscience) and A/G agarose beads (sc-2003, Santa Cruz Biotechnology) were added thereto, followed by immuno-precipitation in a 4° C. rotator for 12 hours.
The immune complex was washed with lysis buffer twice and then washed with kinase assay buffer (20 mM HEPES [pH7.6], 2 mM DTT, 1 mM NaF, 1 mM Na3Vo4, 20 mM β-glycerophosphate, 20 mM PNPP, 20 mM MgCl2, 20 mM MnCl2, 1 mM Benzamidie, and 1 mM EDTA) lastly. Kinase assay buffer and the compound were added to the RIPK1 immuno-precipitate, followed by reaction in a 24° C. constant-temperature water bath for 15 minutes. Additional reaction was induced for 30 minutes at 30° C. after 100 μM of ATP and 10 μCi[^32P] γ-ATP were added thereto. The reaction mixture was washed with kinase assay buffer once, to which protein loading buffer was added, followed by heating at 100° C. for 3 minutes. The reaction mixture was then loaded on 8% SDS-PAGE gel. Radioactive image of the phosphorylated RIPK1 was detected with FLA-7000 (GE healthcare). The image Quant TL program was used for the quantification.

[2] = tested on: RGC-5 (rat ganglion cell); assay: Retinal nerve protection under oxygen-glucose deprivation (OGD), LDH assay; format: cell-based; conditions: RGC-5, OGD 15 hours, compound 20 μM, DMSO control = 100%
Description: The following experiment was performed to evaluate the protective effect of the compounds of examples of the invention on the retinal nerve under oxygen-glucose deprivation condition.
The retinal ganglion cell line RGC-5 (rat ganglion cell) was cultured in DMEM (Dulbecco's modified Eagle's medium) supplemented with 10% FBS (fetal bovine serum) and 1% penicillin/streptomycin. The cells were distributed in a 96-well plate at the density of 8×10^3 cells/well, followed by culture in a 37° C., CO2 incubator for 12 hours. The cells were washed with PBS once and the medium was replaced with glucose free DMEM. The cells were treated with either DMSO (0.1%) alone (control) or with the compounds of examples (20 μM) shown in Table 3, followed by culture in an anaerobic incubator (10% H2, 5% CO2, 85% N2, 37° C., chamber (ThermoForma, USA)) for 15 hours to induce cell death.
The level of cell death was measured by LDH (lactate dehydrogenase, Roche) assay. The LDH assay is a method for measuring the activity of LDH released from the damaged cells into the culture medium. NAD^+ was reduced to NADH and H^+ by LDH, and the bond of tetrazolium salt INT ring was cleaved by diaphorase to form formazan. Absorbance of the formazan was measured at 490 nm by using Victor 3 (PerkinElmer). The absorbance reflects the amount of dead cells.
The level of the control LDH under oxygen-glucose deprivation condition was regarded as 100%, and the level of LDH in the cell group cultured in normal medium (10% FBS, DMEM) for the same time was regarded as 0%. Based on that, the levels of LDH of the cell groups treated with the compounds of the invention under oxygen-glucose deprivation condition were converted into the relative ratio of cell death. The compounds of examples of the invention were treated to wells, each compound for three wells, and then each experiment was performed in triplicate.

O=C(c1cc2c(-c3ccc(F)cc3)cncc2s1)N1CCOCC1 [Example 2, (4-(4-fluorophenyl)thieno[2,3-c]pyridine-2-yl)(morpholino)methanone]
inhibition at 100 µM [1]: ≥ 50% | activity at 100 µM [1]: 45 ± 12.7%

O=C(c1cc2ccc3ccccc3c2s1)N1CCOCC1 [Example 6, morpholino(naphtho[1,2-b]thiophene-2-yl)methanone]
Death of retinal nerve cell (%) [2]: 30.7 ± 1.06% | inhibition at 100 µM [1]: ≥ 50% | activity at 100 µM [1]: 48.5 ± 23.3%

O=C(O)C1COCCN1C(=O)c1cc2c(-c3ccc(F)cc3)cccc2s1 (stereo not shown) [Example 8, 4-(4-(4-fluorophenyl)benzo[b]thiophene-2-carbonyl)morpholine-3-carboxylic acid]
Death of retinal nerve cell (%) [2]: 52.3 ± 11.1% | activity at 100 µM [1]: 88.5 ± 16.3%

O=C(c1cc2c(-c3ccc4[nH]ccc4c3)cccc2s1)N1CCOCC1 [Example 9, (4-(1H-indole-5-yl)benzo[b]thiophene-2-yl)(morpholino)methanone]
Death of retinal nerve cell (%) [2]: 64.6 ± 9.5% | activity at 100 µM [1]: 76 ± 33.9%

CC(=O)Nc1ccc(-c2cccc3sc(C(=O)N4CCOCC4)cc23)cc1 [Example 10, N-(4-(2-(morpholine-4-carbonyl)benzo[b]thiophene-4-yl)phenyl)acetamide]
Death of retinal nerve cell (%) [2]: 49.0 ± 7.0% | activity at 100 µM [1]: 62.5 ± 16.8%

O=C(c1cc2cc(O)ccc2[nH]1)N1CCOCC1 [Example 11, (5-hydroxy-1H-indole-2-yl)(morpholino)methanone]
Death of retinal nerve cell (%) [2]: 41.1 ± 3.1% | activity at 100 µM [1]: 70.7 ± 28.5%

Cc1cc(C)c2cc(C(=O)N3CCOCC3)sc2c1 [Example 17, (4,6-dimethylbenzo[b]thiophene-2-yl)(morpholino)methanone]
Death of retinal nerve cell (%) [2]: 38.5 ± 5.5% | activity at 100 µM [1]: 62.5 ± 16.8%

CCN(CC)C(=O)c1cccc2sc(C(=O)N3CCOCC3)cc12 [Example 20, N,N-diethyl-2-(morpholine-4-carbonyl)benzo[b]thiophene-4-carboxamide]
Death of retinal nerve cell (%) [2]: 43.6 ± 8.5% | activity at 100 µM [1]: 77 ± 12.5%

O=C(c1cc2c(-c3ccc(-c4ccccc4)cc3)cccc2s1)N1CCOCC1 [Example 31, (4-(biphenyl-4-yl)benzo[b]thiophene-2-yl)(morpholino)methanone]
Death of retinal nerve cell (%) [2]: 81.2 ± 8.3% | activity at 100 µM [1]: 85.2 ± 3.5%

Cc1ccc(-c2cccc3sc(C(=O)N4CCOCC4)cc23)cc1 [Example 32, morpholino(4-p-tolylbenzo[b]thiophene-2-yl)methanone]
Death of retinal nerve cell (%) [2]: 64.6 ± 7.4% | activity at 100 µM [1]: 6.5 ± 4.9%

O=C(O)c1ccc(-c2cccc3sc(C(=O)N4CCOCC4)cc23)cc1 [Example 33, 4-(2-(morpholine-4-carbonyl)benzo[b]thiophene-4-yl)benzoic acid]
Death of retinal nerve cell (%) [2]: 51.5 ± 7.0% | activity at 100 µM [1]: 90 ± 2.8%

COc1ccc(-c2cccc3sc(C(=O)N4CCOCC4)cc23)cc1 [Example 34, (4-(4-methoxyphenyl)benzo[b]thiophene-2-yl)(morpholino)methanone]
Death of retinal nerve cell (%) [2]: 55.4 ± 18.1% | activity at 100 µM [1]: 16.5 ± 7.8%

Cl.NC1CCN(C(=O)c2cc3c(-c4ccc(F)cc4)cccc3s2)CC1 [Example 37, (4-aminopiperidine-1-yl) (4-(4-fluorophenyl)benzo[b]thiophene-2-yl)methanone hydrochloride]
Death of retinal nerve cell (%) [2]: 87.0 ± 13.2% | inhibition at 100 µM [1]: ≥ 50% | activity at 100 µM [1]: 25.5 ± 14.8%

O=C(c1cc2cc(-c3ccc(F)cc3)ccc2s1)N1CCOCC1 [Example 40, (5-(4-fluorophenyl)benzo[b]thiophene-2-yl)(morpholino)methanone]
Death of retinal nerve cell (%) [2]: 68.2 ± 11.2% | activity at 100 µM [1]: 57.5 ± 12%

O=C(c1cc2c(-c3cccc(-c4ccccc4)c3)cccc2s1)N1CCOCC1 [Example 41, (4-(biphenyl-3-yl)benzo[b]thiophene-2-yl)(morpholino)methanone]
Death of retinal nerve cell (%) [2]: 58.3 ± 6.5% | activity at 100 µM [1]: 84.7 ± 6.4%

Nc1cccc(-c2cccc3sc(C(=O)N4CCOCC4)cc23)c1 [Example 42, (4-(3-aminophenyl)benzo[b]thiophene-2-yl)(morpholino)methanone]
Death of retinal nerve cell (%) [2]: 57.2 ± 11.2% | inhibition at 100 µM [1]: ≥ 50% | activity at 100 µM [1]: 35.5 ± 3.9%

NC(=O)c1ccc(-c2cccc3sc(C(=O)N4CCOCC4)cc23)cc1 [Example 43, 4-(2-(morpholine-4-carbonyl)benzo[b]thiophene-4-yl)benzamide]
Death of retinal nerve cell (%) [2]: 62.3 ± 1.7% | activity at 100 µM [1]: 58.5 ± 17.7%

O=C(c1cc2c(-c3ccc(O)cc3)cccc2s1)N1CCOCC1 [Example 44, (4-(4-hydroxyphenyl)benzo[b]thiophene-2-yl)(morpholino)methanone]
Death of retinal nerve cell (%) [2]: 81.1 ± 6.5% | inhibition at 100 µM [1]: ≥ 50% | activity at 100 µM [1]: 21 ± 17%

O=C(c1cc2c(-c3ccc(OC(F)(F)F)cc3)cccc2s1)N1CCOCC1 [Example 45, morpholino(4-(4-(trifluoromethoxy)phenyl)benzo[b]thiophene-2-yl)methanone]
Death of retinal nerve cell (%) [2]: 89.4 ± 14.0% | activity at 100 µM [1]: 86.7 ± 34.6%

O=C(c1cc2c(-c3ccc(F)cc3)cccc2s1)N1CCOC1 [Example 46, (4-(4-fluorophenyl)benzo[b]thiophene-2-yl) (oxazolidine-3-yl)methanone]
Death of retinal nerve cell (%) [2]: 55.4 ± 12.8% | activity at 100 µM [1]: 11 ± 5.7%

O=C(c1cc2c(-c3ccc(F)cc3)cccc2s1)N1CCC(O)CC1 [Example 48, (4-(4-fluorophenyl)benzo[b]thiophene-2-yl)(4-hydroxypiperidine-1-yl)methanone]
Death of retinal nerve cell (%) [2]: 47.7 ± 13.2% | inhibition at 100 µM [1]: ≥ 50% | activity at 100 µM [1]: 25.5 ± 0.7%

CN1CCN(C(=O)c2cc3c(-c4ccc(F)cc4)cccc3s2)CC1.Cl [Example 49, (4-(4-fluorophenyl)benzo[b]thiophene-2-yl)(4-methylpiperazine-1-yl)methanone hydrochloride]
Death of retinal nerve cell (%) [2]: 43.8 ± 13.7% | inhibition at 100 µM [1]: ≥ 50% | activity at 100 µM [1]: 27 ± 5.7%

CSc1ccc(-c2cccc3sc(C(=O)N4CCOCC4)cc23)cc1 [Example 50, (4-(4-(methylthio)phenyl)benzo[b]thiophene-2-yl)(morpholino)methanone]
Death of retinal nerve cell (%) [2]: 57.2 ± 8.1% | inhibition at 100 µM [1]: ≥ 50% | activity at 100 µM [1]: 47.5 ± 2.1%

O=C(c1cc2c(-c3ccc(F)cc3)ccc(Cl)c2s1)N1CCOCC1 [Example 53, (7-chloro-4-(4-fluorophenyl)benzo[b]thiophene-2-yl)(morpholino)methanone]
Death of retinal nerve cell (%) [2]: 59.9 ± 9.7% | activity at 100 µM [1]: 70 ± 4.2%

O=C(c1cc2c(-c3ccc(Br)cc3)cccc2s1)N1CCOCC1 [Example 54, (4-(4-bromophenyl)benzo[b]thiophene-2-yl)(morpholino)methanone]
Death of retinal nerve cell (%) [2]: 74.3 ± 5.1% | activity at 100 µM [1]: 54.5 ± 37.5%

COc1ccc(-c2cccc3sc(C(=O)N4CCOCC4)cc23)cn1 [Example 55, (4-(6-methoxypyridine-3-yl)benzo[b]thiophene-2-yl)(morpholino)methanone]
Death of retinal nerve cell (%) [2]: 47.2 ± 12.4% | inhibition at 100 µM [1]: ≥ 50% | activity at 100 µM [1]: 43 ± 7.1%

O=C(c1cc2c(Cc3cccc(F)c3)cccc2s1)N1CCOCC1 [Example 56, (4-(3-fluorobenzyl)benzo[b]thiophene-2-yl)(morpholino)methanone]
Death of retinal nerve cell (%) [2]: 81.0 ± 16.1% | activity at 100 µM [1]: 54.5 ± 37.5%

O=C(c1cc2c(Cc3ccc(F)cc3F)cccc2s1)N1CCOCC1 [Example 57, (4-(2,4-difluorobenzyl)benzo[b]thiophene-2-yl)(morpholino)methanone]
Death of retinal nerve cell (%) [2]: 89.1 ± 16.9% | activity at 100 µM [1]: 20 ± 14.1%
